What all share (type): cell-based
Test [1] relates to MiaPaCa-2 pancreatic cancer cell line. Put plainly: [3H]-thymidine incorporation (DNA synthesis), MiaPaCa-2. Also noted: effect on proliferation (thymidine incorporation): dose or concentration left out as unconfirmed. As for the experimental part: (§1) Cell culture. The following pancreatic cancer cell lines were used: MiaPaCa-2 and PANC-1 (poorly-differentiated); Capan-1 and Capan-2 (well-differentiated); and HPAF and AsPC-1 (pleomorphic). These were purchased from American Type Culture Collection (Rockville, Md.). PANC-1 and MiaPaCa-2 were grown in DMEM media; HPAF and AsPC-1 were grown in MEM media; and Capan-1 and Capan-2 were grown in-McCoy's media. Media were supplemented with 10% FBS, and the cells were grown as monolayers in a humidified atmosphere of […] and 5% CO2 at 37° C. The cells were regularly seeded into 75 cm^2 flask with media changed every other day. For experiments, cells were grown to 80% confluence, digested with trypsin-EDTA, and plated either in 12 or 24-well plates at a concentration of 50,000/ml, as appropriate.
(§2) DNA synthesis by [^3H]-Thymidine incorporation. Cells were plated in 12 or 24-well plates. After reaching 70% confluence, they were incubated in serum-free media for 24 hours, which was then replaced with fresh serum-free media with or without the appropriate concentration of leukotriene B4 receptor antagonist LY293111 (62.5-1000 nM), LTB4 (100-400 nM), or both. After the appropriate period of culture, cellular DNA synthesis was assayed by adding 0.5 μCi/well of [^3H]-methyl-thymidine and incubating for another 2 hours. Then, the cells were washed twice with PBS, fixed with 10% trichloroacetic acid (“TCA”) for 30 minutes, and solubilized by adding 0.4 M NaOH to each well. Radioactivity, indicating incorporation of ^3H-thymidine into DNA, was measured by adding a scintillation cocktail and counting on a scintillation counter (LKB RackBeta, Wallac, Turku, Finland)
On the technique in general: Uptake of a labelled nucleoside into DNA is a usual measure of proliferation.

Test [2] concerns HPAF pancreatic cancer cell line. Put plainly: [3H]-thymidine incorporation (DNA synthesis), HPAF. On the set-up: effect on proliferation (thymidine incorporation): dose or concentration left out as unconfirmed. As for the experimental part:
as §1, §2

Test [3] concerns Bcl-2 in MCF-7 breast cancer cells. Put plainly: Bcl-2 expression by western blotting. To be noted: MCF-7, LTB4 100 nM.

The structures appear in SMILES notation.

Turning to `CCCc1c(OCCCCc2nnn[nH]2)ccc(C(C)=O)c1O` [LY171883, 1-(2-hydroxy-3-propyl-4-(4-(1H-tetrazol-5-yl)butoxy)phenyl)ethanone, reference compound], the “effect on proliferation (thymidine incorporation)” value is reported as “only affected proliferation at the highest concentration” in test [1] (MiaPaCa-2, 48 hours, likely a toxic effect, P=0.2316) and “only affected proliferation at the highest concentration” in test [2] (HPAF, 48 hours, likely a toxic effect, P=0.2217).

Turning to `CCCCC/C=C\C[C@@H](O)/C=C/C=C/C=C\[C@@H](O)CCCC(=O)O` [LTB4, Leukotriene B4, reference compound], the “increase of proliferation compared with control” value came out at 25% in test [1] (MiaPaCa-2 (FIG. 6A), 100 nM LTB4, 24 hours) and 25% in test [2] (HPAF (FIG. 6B), 100 nM LTB4, 24 hours). Besides, the “thymidine incorporation compared with control” value was “more than doubled” in test [1] (MiaPaCa-2, LTB4 100 nM for 72 hours) and “more than doubled” in test [2] (HPAF, LTB4 100 nM for 72 hours). For the same compound, the “effect on proliferation (thymidine incorporation)” value in test [1] (MiaPaCa-2, concentration and time-dependent, P<0.0001) is reported as “stimulated the proliferation”; in test [2] (HPAF, concentration and time-dependent, P<0.0001) it was “stimulated the proliferation”. In addition, in test [3], the “Bcl-2 expression (western blot)” value is “increase expression”.

The record behind these values is patent US20040053962A1, “Methods for inhibiting proliferation and inducing apoptosis in cancer cells” (priority 2003, published 2004).
